In paper PMC8318231, “Rate-of-Kill (RoK) assays to triage large compound sets for Chagas disease drug discovery: Application to GSK Chagas Box” (PLoS Neglected Tropical Diseases, 2021):

Tests used:
[1] = system: T. cruzi intracellular amastigotes in H9c2 cells; experiment: Rate-of-Kill (RoK) high-content imaging assay, amastigotes per cell (AM/CELL) and curve descriptors; format: cell-based, Trypanosoma cruzi; design: key to ME_24h / ME_48h / ME_72h: % reduction in parasite burden (cidal response); t50pct_MCC50 / t50pct_Cmax: unit not given here; conditions: for ME_24h: 24h; for ME_48h: 48h; for ME_72h: 72h; for AM/CELL NORM: sheet figure 4 A; for t50%_Cmax / tlag_Cmax / t50pct_Cmax: at Cmax; for ME_24h (%): maximum effect at 24 h; for ME_24h (%) / ME_48h (%) / ME_72h (%): RoK assay; for ME_48h (%): maximum effect at 48 h; for ME_72h (%): maximum effect at 72 h; for ME 24h (maximum effect at 24 hours, intracellular amastigotes): maximum percentage of parasite burden reduction reached by any concentration
Description: For this high-content intracellular imaging assay, H9c2 cells were seeded in 225 cm^2 T- FLASK in DMEM with 10% FBS for 4 h to allow attachment. T. cruzi trypomastigotes, collected at days 5 to 8 after infection from LLC-MK2 parasite infected cultures, were allowed to swim out for 4 h at 37°C from a centrifuged pellet (1,600 x g / 10 min). Trypomastigotes were then collected and counted in a CASY Cell Counter using the 60 μm capillary. Trypomastigotes, in supplemented DMEM, were added to H9c2 cultures in a multiplicity of infection (MOI) of 8 and incubated for 18 h. Cells were washed once with PBS before incubation of the infected H9c2 monolayer with trypsin (Life-Technologies) to detach cells from the flask. Cells were counted in a CASY Cell Counter, using the 150 μm capillary, and their density set at 5 x 10^4 cells/mL in supplemented DMEM. Infected H9c2 were dispensed into 384-well plates at 50 μL per well using a Multidrop Combi dispenser. Control wells used to determine a 100% parasitic growth (full 6th column of each plate) were left untreated, whereas not infected cells were added in the control wells used as 0% parasite growth (or 100% parasite growth inhibition; full 18th column of each plate). The four plates corresponding to each RoK assay were predispensed for the same mother plate. […] Cultures were then fixed and stained with 50 μL per well of a PBS solution containing 4% formaldehyde and 2 μM DRAQ5 DNA dye (BioStatus, UK). Then plates were read in a PerkinElmer Opera Phenix using a 20x objective, 3 fields per well. DRAQ5 signal was detected using 640 nm excitation laser and a 690/50 nm emission detection filter. Automated image analysis was performed with a script developed on Acapella High Content Imaging and Analysis Software (PerkinElmer). Two outputs were provided for each sample well: (1) number of host cells nuclei to determine drug-related cytotoxicity (aka H9c2) and (2) number of amastigotes per cell as infection level measurement (aka AM/CELL). Each output is plotted as a time course for each compound at every concentration. This assay was adapted from Alonso-Padilla et al. and Peña et al..
To identify and classify the different compounds, the number of amastigotes per cell (AM/CELL) raw data obtained in rate of kill assay are normalised using the average of C1 (infected cells) at time 4 hours as 0% effect and the average of C2 (non-infected cells) for each time as 100% effect, according to the following Eq 1: %CIDALRESPONSE=100*[Avg_C14h-RawData]/[Avg_C14h-Avg_C2] (1)
• ME (Maximum Effect) is the maximum percentage of parasite burden reduction reached by any compound concentration. Compounds that decrease the initial parasite load will show a positive value of ME, whereas compounds that allow the progression of infection will render a negative ME value. […] It is calculated for the MCC50 (t50%_MCC50) and for the maximum concentration (t50%_Cmax). […] The value of this parameter is not either interpolated or extrapolated, and it refers to the first experimental time-course point at which a 50% of effect is reached or exceeded. • tlag defines the time elapsed for one particular concentration to reduce parasite burden between two consecutive points at any moment of the time course. It is calculated for the MCC50 (tlag_MCC50) and for the maximum concentration (tlag_Cmax). The value of this parameter is not either interpolated or extrapolated, and it refers to the first experimental time-course point of a positive slope in the normalised plot (i.e. %Cidal_Response). • Cmin_Tox (Minimal CytoToxic Concentration) is the lowest compound concentration that is reducing the number of host mammalian cells below 50% of initial cell density. Cytotoxic compounds may mislead a bona fide antiparasitic action.

[2] = system: T. cruzi Tulahuen trypomastigotes; experiment: T. cruzi trypomastigote assay (Cell Titer-Glo viability, ATP luminescence); format: cell-based, Trypanosoma cruzi; conditions: for Trypomastigotes pIC50 48 hours: 48 hours incubation; for Trypomastigotes pIC50 48 hours / Trypomastigotes pIC50 72 hours: pIC50 = -log10 IC50 in molar units; for Trypomastigotes pIC50 72 hours: 72 hours incubation; for 72 pIC50 (trypomastigotes, raw data of Fig 1D): 72 hours, plotted values, censored values given without sign; for 48 pIC50 / 72 pIC50: trypomastigote assay; for 48 pIC50: 48 h; for 72 pIC50: 72 h
Method in brief: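 Tulahuen trypomastigotes from infected LLC-MK2 culture supernatants (days 5–8) plated at 5 × 10^4 per well in DMEM/2% FBS with compound at 5 μM single-shot final or in dose response. Viability by CellTiter-Glo ATP luminescence after 10 min at room temperature, normalised to no-cell (100%) and DMSO (0%) controls.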

TcCYP51 = conditions: formerly reported; cited from earlier work

Row | Compound | ME_24h ([1]; figure 5) | ME_48h ([1]; figure 5) | ME_72h ([1]; figure 5) | MCCE ([1]; RoK curve descriptor) [µM] | AM/CELL NORM ([1]; Time 4) | AM/CELL NORM ([1]; Time 24) | AM/CELL NORM ([1]; Time 48) | AM/CELL NORM ([1]; Time 72) | tlag_Cmax [1] [h] | t50pct_Cmax ([1]; figure 5) | tlag_Cmax ([1]; figure 5) | t50%_MCC50 ([1]; at MCC50) [h] | tlag_MCC50 ([1]; at MCC50) [h] | t50pct_MCC50 ([1]; at MCC50, figure 5) | tlag_MCC50 ([1]; at MCC50, figure 5) | MCCE ([1]; figure 5) | ME_24h (%) [1] [%] | ME_48h (%) [1] [%] | ME_72h (%) [1] [%] | ME 24h (maximum effect at 24 hours, intracellular amastigotes) [1] [%] | further results
1 | CN1CCCN(C(=O)c2ccc(N3CCCC3)cc2Cl)CC1 [TCMDC-143127] | -63.1294 | 41.4777 | 77.6777 | 1.9 | 3.238 | -70.995 | 17.9659 | 59.5367 | 24.0 | 67.2 | 24 | 72.0 | 24.0 | 72 | 24 | 1.852 | -63.1 | 41.5 | 77.7 | -38.4049 | MCC50 ([1]; RoK curve descriptor): 7.0 µM; t50%_Cmax [1]: 67.2 h; MCC50 ([1]; figure 5, in µM): 7.037; Trypomastigotes pIC50 48 hours [2]: < 4.3; Trypomastigotes pIC50 72 hours [2]: < 4.3; 72 pIC50 (trypomastigotes, raw data of Fig 1D) [2]: < 4.3; 48 pIC50 ([2]; figure 1A): < 4.3; 72 pIC50 ([2]; figure 1A): < 4.3; 72 pIC50 ([2]; figure 1B): < 4.3; CYP51 pIC50 (TcCYP51): < 4
2 | COc1ccc(C2CC(c3ccccc3Cl)=NN2C(=O)CNC(=O)C2CCC2)cc1 (stereo not drawn) [TCMDC-143130] | 26.5695 | 65.3197 | 85.0018 | 1.9 | 21.8567 | 26.5695 | 65.3197 | 85.0018 | 4.0 | 48 | 4 | 72.0 | 4.0 | 72 | 4 | 1.852 | 26.6 | 65.3 | 85.0 | 26.5695 | MCC50 ([1]; RoK curve descriptor): 5.6 µM; t50%_Cmax [1]: 48.0 h; MCC50 ([1]; figure 5, in µM): 5.556; Trypomastigotes pIC50 48 hours [2]: 4.6; Trypomastigotes pIC50 72 hours [2]: 4.7; CYP51 pIC50 (TcCYP51): 4.3
3 | CCC(=O)Nc1ccc(-c2nc3ccc(Cl)cc3[nH]2)cc1 [TCMDC-143135] | 52.1566 | 46.9478 | 38.7036 | 5.6 | -141.214 | -21.5946 | -76.5792 | -95.9437 | 4.0 | 72 | 4 | 24.0 | 4.0 | 24 | 4 | 5.556 | 52.2 | 47.0 | 38.7 | 52.1566 | Trypomastigotes pIC50 48 hours [2]: 5.3; Trypomastigotes pIC50 72 hours [2]: 5.4; CYP51 pIC50 (TcCYP51): < 4
4 | COc1ccc(-c2nc3ncccc3o2)cc1NC(=O)c1cccs1 [TCMDC-143137] | 22.8714 | 76.8526 | 102.262 | 5.6 | -5.518 | 19.5521 | 76.8526 | 68.9196 | 4.0 | 48 | 4 | 48.0 | 4.0 | 48 | 4 | 5.556 | 22.9 | 76.9 | 102.3 | 22.8714 | cidality in the RoK assay (in words) [1]: not signs of cidality at 24 hours; ME / cidal effect at 72 hours ([1]; 72 hours): 100%; MCC50 ([1]; RoK curve descriptor): 16.7 µM; t50%_Cmax [1]: 48.0 h; MCC50 ([1]; figure 5, in µM): 16.6667; activity in trypomastigotes assay (in words) ([2]; 48 and 72 hours): only active in trypomastigote assay at 72 hours; Trypomastigotes pIC50 48 hours [2]: < 4.3; Trypomastigotes pIC50 72 hours [2]: 5.2; CYP51 pIC50 (TcCYP51): < 4
5 | Cc1nnnn1-c1cccc(C(=O)N2CCC[C@@]3(C)c4ncncc4CCC23)c1 (stereo partly drawn) [TCMDC-143148] | -108.08 | -0.7839 | 73.626 | 0.6 | 4.786 | -133.046 | -35.529 | 70.8755 | 24.0 | 72 | 24 | 72.0 | 24.0 | 72 | 24 | 0.6173 | -108.1 | -0.8 | 73.6 | -108.08 | MCC50 ([1]; RoK curve descriptor): 1.9 µM; t50%_Cmax [1]: 72.0 h; MCC50 ([1]; figure 5, in µM): 1.852; Trypomastigotes pIC50 48 hours [2]: < 4.3; Trypomastigotes pIC50 72 hours [2]: < 4.3; 72 pIC50 (trypomastigotes, raw data of Fig 1D) [2]: < 4.3; 48 pIC50 ([2]; figure 1A): < 4.3; 72 pIC50 ([2]; figure 1A): < 4.3; 72 pIC50 ([2]; figure 1B): < 4.3; CYP51 pIC50 (TcCYP51): 4.6
6 | Cc1c(C#N)c([N+](=O)[O-])nn1Cc1cccc(Cl)c1Cl [TCMDC-143152] | 56.9761 | 166.798 | 160.217 | 0.6 | 5.197 | 56.9761 | 166.798 | 160.217 | 4.0 | 24 | 4 | 48.0 | 4.0 | 48 | 4 | 0.6173 | 57.0 | 166.8 | 160.2 | 56.9761 | MCC50 ([1]; RoK curve descriptor): 1.9 µM; t50%_Cmax [1]: 24.0 h; MCC50 ([1]; figure 5, in µM): 1.852; Trypomastigotes pIC50 48 hours [2]: 6.1; Trypomastigotes pIC50 72 hours [2]: 6.1; 72 pIC50 (trypomastigotes, raw data of Fig 1D) [2]: 6.1; 48 pIC50 ([2]; figure 1A): 6.1; 72 pIC50 ([2]; figure 1A): 6.1; 72 pIC50 ([2]; figure 1B): 6.1; CYP51 pIC50 (TcCYP51): < 4
